Data from patent US8945540B2, “Compositions for enhancing the antibacterial activity of myeloperoxidase and methods of use thereof” (Exoxemis, Inc., priority 2008, dated 2015).
Converted amounts (≈) assume the structure as drawn.

Tests used:
Staphylococcus aureus [1] = assay: Microbicidal activity of the myeloperoxidase system (p-MPO, glucose oxidase, glucose) with amino acids in the presence of blood, CFU plate counts; synergy determination from these CFU; format: cell-based; conditions: for Average Viability CFU/ml 50 min / Log Reduction 50 min: single amino acid 2.5 mM, MPO 4.7 U/ml, GO 4.2 U/ml
Method in brief: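 Staphylococcus aureus grown 24 hours in TSB at 35° C was washed in saline and added at a final 2-3×10^7 CFU per mL. The bacteria were mixed in 1 mL reactions with porcine myeloperoxidase, glucose oxidase, amino acids, 150 mM sodium chloride and 3% venous whole blood. Adding glucose to 150 mM started killing. After catalase addition, survivors were counted by serial dilution plating on TSA at 37° C for 24 hours.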

Staphylococcus aureus [2] = assay: Control: microbicidal activity of the amino acid or analogue alone (no glucose, MPO, glucose oxidase) in the presence of blood; format: cell-based; conditions: amino acid alone 5 mM, MPO 0, GO 0, no glucose, blood, without replication
Excerpt: As a control to determine the microbicidal activity of the amino acids alone, the foregoing procedure was followed without replication, except in the absence of glucose, MPO, and glucose oxidase.

Bacillus subtilis spores = assay: Myeloperoxidase system with beta alanine and L-alanine against spores in the presence of blood; format: cell-based; conditions: 2 hours, MPO 25 μg/mL (9.4 U/mL), GO 8.3 U/mL
Experimental: The effect of a two-way combination of beta alanine and L-alanine, as potential enhancing agents, for MPO microbicidal action against Bacillus subtilis spores in the presence of blood, was determined following the procedure of Example 2. However, in this case each test contained a single low concentration of MPO (25 μg/mL or 9.4 U/mL) and glucose oxidase (8.3 U/mL). […] The effect of both L-alanine and beta alanine alone on the myeloperoxidase antimicrobial activity against Bacillus subtilis spores was tested for comparison.
The nature of the relationship between beta alanine and L-alanine was examined following the synergy determination method described above.

Pseudomonas aeruginosa = assay: Myeloperoxidase system with amino acids in the presence of blood (Example 9); format: cell-based; conditions: 60 minutes, MPO 25 μg/mL, GO 8.3 U/mL, L-valine/glycine 2.5 μmol/mL each, beta alanine 5 mM
Experimental: (§1) The effect of two way combinations of amino acids glycine and valine, and individually beta alanine, as potential enhancing agents for MPO microbicidal action against Pseudomonas aeruginosa, Staphylococcus aureus and Candida albicans, in the presence of blood, was determined following the procedure of Example 2. Each organism was tested against a single low concentration of MPO (25 μg/mL or 9.4 U/mL) and glucose oxidase (8.3 U/mL). The two amino acid activators were each added at a final concentration of 2.5 μmol/mL and the individual amino acid, beta alanine, was tested at a single concentration of 5 μmol/mL. The effect of no amino acid containing formulations on the myeloperoxidase antimicrobial activity against these organisms was tested for comparison.

Candida albicans = assay: as above; format: cell-based; conditions: MPO 25 μg/mL, GO 8.3 U/mL, L-valine/glycine 2.5 μmol/mL each, beta alanine 5 μmol/mL
Experimental: as §1

E. coli = assay: MIC, modified CLSI broth microdilution; format: cell-based, Escherichia coli; conditions: E. coli ATCC 25922; inoculum prepared in Diluent solution
Excerpt: (§2) All clinical isolates were obtained from the culture collection of Eurofins Medinet Anti-Infective Services (Herndon, Va.), and represent diverse geographical regions. They were originally derived from clinical specimens and identified using standard microbiological methods (see Table 33 below for details). Escherichia coli ATCC 25922, Staphylococcus aureus ATCC 25923, S. aureus ATCC 29213, Pseudomonas aeruginosa ATCC 27853, and Enterococcus faecalis ATCC 29212 were used as quality control strains for the Enhanced MPO Solution and comparator agents to validate the modified Clinical and Laboratory Standards Institute (CLSI, formally NCCLS) broth microdilution method.
(§3) Modifications were made to the standard broth microdilution method to accommodate the rapid in vitro activity of the Enhanced MPO Solution as described below. Each antimicrobial agent and Concentrate solution was diluted in double strength cation-adjusted Mueller-Hinton Broth (CAMHB) and dispensed in mircrodilution trays. All β-hemolytic streptococci were tested in double strength CAMHB supplemented with 5% lysed horse blood. Isolates were prepared by suspending several colonies (four to six) from an overnight culture on Trypticase Soy Agar (TSA) with 5% sheep blood into sterile saline and the density adjusted to a 0.5 McFarland standard (˜10^8 CFU/ml). Standardized bacterial suspensions were further diluted in double strength Diluent solution so that approximately 5×10^5 CFU/ml was mixed with serial drug dilutions. The addition of Diluent solution to the Concentrate solution activates the enzyme system, which in turn exerts its rapid mode of action. The microdilution trays were incubated in ambient air at 35° C. for 18 to 24 h.
(§4) MIC ranges were established for the Enhanced MPO Solution by testing over 20 replicates of one lot of the Enhanced MPO Solution against S. aureus ATCC 29213 and E. coli ATCC 25922. Quality control parameters were then determined for the Enhanced MPO Solution by testing three lots of the Concentrate solution used for preparation of the final Enhanced MPO Solution formulation. Testing was performed in duplicate against S. aureus ATCC 29213 and E. coli ATCC 25922. The effects of modifying the standard broth microdilution test were also assessed with antibiotics with known quality control limits to validate the CLSI broth microdilution method.

S. aureus = assay: MIC, modified CLSI broth microdilution; format: cell-based, Staphylococcus aureus; conditions: for MIC by the modified method versus published quality control ranges: S. aureus ATCC 29213, inoculum prepared in Diluent solution
Excerpt: as §2, §3, §4

S. agalactiae = assay: MIC, modified CLSI broth microdilution (CAMHB with 5% lysed horse blood); format: cell-based; conditions: Streptococcus agalactiae, 34 clinical isolates
Experimental: (§5) Modifications were made to the standard broth microdilution method to accommodate the rapid in vitro activity of the Enhanced MPO Solution as described below. Each antimicrobial agent and Concentrate solution was diluted in double strength cation-adjusted Mueller-Hinton Broth (CAMHB) and dispensed in mircrodilution trays. All β-hemolytic streptococci were tested in double strength CAMHB supplemented with 5% lysed horse blood. Isolates were prepared by suspending several colonies (four to six) from an overnight culture on Trypticase Soy Agar (TSA) with 5% sheep blood into sterile saline and the density adjusted to a 0.5 McFarland standard (˜10^8 CFU/ml). Standardized bacterial suspensions were further diluted in double strength Diluent solution so that approximately 5×10^5 CFU/ml was mixed with serial drug dilutions. […] The microdilution trays were incubated in ambient air at 35° C. for 18 to 24 h.

S. pyogenes = assay: as above; format: cell-based; conditions: Streptococcus pyogenes, 33 clinical isolates
Experimental: as §5

E. faecium = assay: MIC, modified CLSI broth microdilution; format: cell-based; conditions: Enterococcus faecium, 22 clinical isolates
Experimental: as §5

E. faecalis = assay: MIC, modified CLSI broth microdilution; format: cell-based, Enterococcus faecalis
Excerpt: as §2
as §3, with “The addition of Diluent solution to the Concentrate solution activates the enzyme system, which in turn exerts its rapid mode of action. The microdilution trays were incubated in ambient air at 35° C. for 18 to 24 h.” left out
MIC ranges were established for the Enhanced MPO Solution by testing over 20 replicates of one lot of the Enhanced MPO Solution against S. aureus ATCC 29213 and E. coli ATCC 25922. Quality control parameters were then determined for the Enhanced MPO Solution by testing three lots of the Concentrate solution used for preparation of the final Enhanced MPO Solution formulation. […] The effects of modifying the standard broth microdilution test were also assessed with antibiotics with known quality control limits to validate the CLSI broth microdilution method.

[3] = system: streptococci groups C, F, and G; assay: MIC, modified CLSI broth microdilution (CAMHB with 5% lysed horse blood); format: cell-based, Streptococcus Group C, Group F, Group G; conditions: for MIC Range: range for all strains tested
Experimental: as §5

S. epidermidis = assay: MIC, modified CLSI broth microdilution; format: cell-based, Staphylococcus epidermidis
Experimental: as §5

[4] = MPO 100 μg/mL, AA 20 mM, 30 min
[5] = MPO 100 μg/mL, AA 20 mM, 60 min
[6] = Table 4, amino acid 5 mM (none: 0 mM), MPO 38 U/ml, GO 33.3 U/ml, blood
[7] = Table 14, in the presence of blood, 50 min
[8] = Enterococcus faecalis, 33 clinical isolates
[9] = Streptococcus Group G, 18 clinical isolates
[10] = Staphylococcus epidermidis, 31 clinical isolates
[11] = Staphylococcus aureus, 109 clinical isolates
[12] = Table 2, amino acid 5 mM (none: 0 mM), MPO 38 U/ml, GO 33.3 U/ml, blood
[13] = Table 10, in the presence of blood, 50 min
[14] = Table 13, in the presence of blood, 50 min

NCCC(=O)O [Beta alanine]
Log 10 (CFU + 1) Survivors (Staphylococcus aureus [1]; MPO 25 μg/mL, AA 5 mM, 30 min): 0.0 | Log 10 (CFU + 1) Survivors (Staphylococcus aureus [1]; MPO 25 μg/mL, AA 5 mM, 60 min): 0.0 | Log 10 (CFU + 1) Survivors (Staphylococcus aureus [1]; MPO 25 μg/mL, AA […], 30 min): 0.0 | Log 10 (CFU + 1) Survivors (Staphylococcus aureus [1]; MPO 25 μg/mL, AA […], 60 min): 0.0 | Log 10 (CFU + 1) Survivors (Staphylococcus aureus [1]; MPO 100 μg/mL, AA 5 mM, 30 min): 0.0 | Log 10 (CFU + 1) Survivors (Staphylococcus aureus [1]; MPO 100 μg/mL, AA 5 mM, 60 min): 0.0 | Log 10 (CFU + 1) Survivors (Staphylococcus aureus [1]; [4]): 0.0 | Log 10 (CFU + 1) Survivors (Staphylococcus aureus [1]; [5]): 0.0 | Average Viability CFU/ml 60 min (Staphylococcus aureus [1]; [6]): 0 CFU/ml | Log Reduction 60 min (Staphylococcus aureus [1]; [6]): 7.4 | Average Viability CFU/ml 50 min (Staphylococcus aureus [1]; [7]): 6000000 CFU/ml | Log Reduction 50 min (Staphylococcus aureus [1]; [7]): 0.7 | Average Viability CFU/ml 50 min (Staphylococcus aureus [1]; blood): 505000 CFU/ml | Log Reduction 50 min (Staphylococcus aureus [1]; blood): 1.7 | increased performance over the MPO system without amino acids (Staphylococcus aureus [1]; within 30 minutes, MPO 25 μg/mL, GO 8.3 U/mL, blood, 5 μmol/mL): 6.8 logs | kill of S. aureus (in words) (Staphylococcus aureus [1]; within 60 minutes, lower concentrations of amino acid and MPO, blood): complete kill | Average Viability CFU/ml 60 min (Staphylococcus aureus [2]): 25500000 CFU/ml | Log Reduction 60 min (Staphylococcus aureus [2]): 0.0 | CFU survivors (Bacillus subtilis spores): 3100000 CFU | enhancing effect over the MPO system without amino acids (Pseudomonas aeruginosa): 4.6 logs | improvement in microbicidal activity over the MPO system without amino acids (Candida albicans): 1.9 logs

Cc1nnc(SCC2=C(C(=O)O)N3C(=O)[C@@H](NC(=O)Cn4cnnn4)[C@H]3SC2)s1 [cefazolin]
MIC by the modified method versus published quality control ranges (E. coli): within previously published quality control ranges | MIC by the modified method versus published quality control ranges (S. aureus): within previously published quality control ranges

C/C(=C\C(=O)OCCCCCCCCC(=O)O)C[C@@H]1OC[C@H](C[C@@H]2O[C@H]2[C@@H](C)[C@H](C)O)[C@@H](O)[C@H]1O [mupirocin]
MIC50 (S. agalactiae): 0.5 µg/mL (≈ 0.999 µM) | MIC90 (S. agalactiae): 0.5 µg/mL (≈ 0.999 µM) | MIC Range (S. agalactiae; range for all strains tested): 0.12 to 2 µg/mL | MIC50 (S. pyogenes): 0.12 µg/mL (≈ 0.24 µM) | MIC90 (S. pyogenes): 0.25 µg/mL (≈ 0.499 µM) | MIC Range (S. pyogenes; range for all strains tested): 0.06 to 0.5 µg/mL | MIC50 (E. faecium): 0.25 µg/mL (≈ 0.499 µM) | MIC90 (E. faecium): 0.25 µg/mL (≈ 0.499 µM) | MIC Range (E. faecium; range for all strains tested): 0.06 to 0.5 µg/mL | MIC50 (E. faecalis; [8]): 32 µg/mL (≈ 63.9 µM) | MIC90 (E. faecalis; [8]): > 32 µg/mL | MIC range, upper end (E. faecalis; clinical isolates): > 32 µg/mL | MIC Range ([3]; Streptococcus Group C, 8 clinical isolates): 0.06 to 0.5 µg/mL | MIC Range ([3]; Streptococcus Group F, 2 clinical isolates): 0.25-0.25 μg/ml | MIC50 [3, 9]: 0.12 µg/mL (≈ 0.24 µM) | MIC90 [3, 9]: 0.12 µg/mL (≈ 0.24 µM) | MIC Range [3, 9]: 0.06 to 0.5 µg/mL | MIC50 (S. epidermidis; [10]): 0.12 µg/mL (≈ 0.24 µM) | MIC90 (S. epidermidis; [10]): > 32 µg/mL | MIC range, upper end (S. epidermidis; clinical isolates): > 32 µg/mL | MIC by the modified method versus published quality control ranges (S. aureus): within previously published quality control ranges | MIC50 (S. aureus; [11]): 0.06 µg/mL (≈ 0.12 µM) | MIC90 (S. aureus; [11]): 0.12 µg/mL (≈ 0.24 µM) | MIC range, upper end (S. aureus; clinical isolates): > 32 µg/mL

C[C@H](N)C(=O)O [L-Alanine]
Log 10 (CFU + 1) Survivors (Staphylococcus aureus [1]; MPO 25 μg/mL, AA 5 mM, 30 min): 6.9 | Log 10 (CFU + 1) Survivors (Staphylococcus aureus [1]; MPO 25 μg/mL, AA 5 mM, 60 min): 4.1 | Log 10 (CFU + 1) Survivors (Staphylococcus aureus [1]; MPO 25 μg/mL, AA […], 30 min): 7.0 | Log 10 (CFU + 1) Survivors (Staphylococcus aureus [1]; MPO 25 μg/mL, AA […], 60 min): 4.7 | Log 10 (CFU + 1) Survivors (Staphylococcus aureus [1]; MPO 100 μg/mL, AA 5 mM, 30 min): 5.1 | Log 10 (CFU + 1) Survivors (Staphylococcus aureus [1]; MPO 100 μg/mL, AA 5 mM, 60 min): 0.0 | Log 10 (CFU + 1) Survivors (Staphylococcus aureus [1]; [4]): 6.1 | Log 10 (CFU + 1) Survivors (Staphylococcus aureus [1]; [5]): 0.0 | Average Viability CFU/ml 60 min (Staphylococcus aureus [1]; [12]): 7 CFU/ml | Log 10 (CFU + 1) Survivors 60 min (Staphylococcus aureus [1]; [12]): 0.9 | Log Reduction 60 min (Staphylococcus aureus [1]; [12]): 6.5 | Average Viability CFU/ml 50 min (Staphylococcus aureus [1]; [13]): 9750000 CFU/ml | Log Reduction 50 min (Staphylococcus aureus [1]; [13]): 0.4 | Average Viability CFU/ml 50 min (Staphylococcus aureus [1]; [14]): 2230000 CFU/ml | Log Reduction 50 min (Staphylococcus aureus [1]; [14]): 1.0 | Average Viability CFU/ml 50 min (Staphylococcus aureus [1]; [7]): 2215000 CFU/ml | Log Reduction 50 min (Staphylococcus aureus [1]; [7]): 1.1 | log reduction at 5000 µM (Staphylococcus aureus [2]; Staphylococcus aureus, 1 h, read-out: Log Reduction 60 min): 0 | Average Viability CFU/ml 60 min (Staphylococcus aureus [2]): 24100000 CFU/ml | CFU survivors (Bacillus subtilis spores): 520000 CFU | log reduction (Bacillus subtilis spores): 1.5 log
